Laboratory results from ChEMBL document CHEMBL1201862, “PubChem BioAssay data set” (2004).
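Test compounds were applied to cells in 96-well plates for 48 hours at 5 doses. At the GI50, growth is halved.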 Activity calls are given as the source filed them. Rule as the data show it: active = GI50 up to about 1.1 µM and inactive = higher.

Key:
Assay in all cases: growth of human tumour cells (NCI), 48 h
[1] = tested on: OVCAR-8
[2] = tested on: MCF7
[3] = tested on: SNB-75
[4] = tested on: SF-539
[5] = tested on: HCT-116
[6] = tested on: CCRF-CEM
[7] = tested on: SNB-19
[8] = tested on: UACC-62
[9] = tested on: MDA-MB-435
[10] = tested on: OVCAR-4
[11] = tested on: SK-OV-3
[12] = tested on: U-251
[13] = tested on: OVCAR-3
[14] = tested on: A549
[15] = tested on: OVCAR-5
[16] = tested on: SR
[17] = tested on: UO-31
[18] = tested on: T47D
[19] = tested on: SW-620
[20] = tested on: A498
[21] = tested on: RXF 393
[22] = tested on: M14
[23] = tested on: Hs-578T
[24] = tested on: EKVX
[25] = tested on: DU-145
[26] = tested on: NCI-H226
[27] = tested on: CAKI-1
[28] = tested on: TK-10
[29] = tested on: BT-549
[30] = tested on: K562
[31] = tested on: LOX IMVI
[32] = tested on: HCT-15
[33] = tested on: UACC-257
[34] = tested on: NCI/ADR-RES
[35] = tested on: PC-3
[36] = tested on: KM12
[37] = tested on: COLO 205
[38] = tested on: NCI-H522
[39] = tested on: IGROV-1
[40] = tested on: MDA-MB-231
[41] = tested on: SF-295
[42] = tested on: ACHN
[43] = tested on: SK-MEL-5
[44] = tested on: RPMI-8226
[45] = tested on: SF-268
[46] = tested on: NCI-H460
[47] = tested on: HT-29
[48] = tested on: SK-MEL-28
[49] = tested on: SN12C
[50] = tested on: HOP-62
[51] = tested on: MDA-N
[52] = tested on: SK-MEL-2
[53] = tested on: HCC 2998
[54] = tested on: HL-60
[55] = tested on: Malme-3M
[56] = tested on: HOP-92
[57] = tested on: NCI-H23
[58] = tested on: MOLT-4
[59] = tested on: 786-0

Measured: GI50

CC(C)(C)OC(=O)NC(Cc1ccc(OCc2ccccc2)cc1)C(=O)NC(COCc1ccccc1)C(=O)Oc1c(Cl)c(Cl)c(Cl)c(Cl)c1Cl (stereo not given)
17.8 µM: [32]
inactive: [1] 21.5 µM | [2] 22.4 µM | [3] 29.6 µM | [4] 15.5 µM | [5] 16.4 µM | [6] 55.2 µM | [7] 29.3 µM | [8] 16.2 µM | [9] 21.7 µM | [10] 26.5 µM | [11] 17.1 µM | [12] 18 µM | [13] 14.9 µM | [14] 27.1 µM | [15] 25.5 µM | [16] 44.9 µM | [17] 17 µM | [18] 22.8 µM | [19] 25.6 µM | [20] 23.1 µM | [21] 24.8 µM | [22] 20.8 µM | [23] 17.7 µM | [24] 23.1 µM | [25] 14.8 µM | [26] 21.4 µM | [27] 19.9 µM | [28] 29.8 µM | [29] 20 µM | [30] > 100 µM | [31] 23.6 µM | [33] 27.6 µM | [34] 21.2 µM | [35] 19.5 µM | [36] 19.3 µM | [37] 18.7 µM | [38] 22.2 µM | [39] 15.8 µM | [40] 13.5 µM | [41] 19.2 µM | [42] 24.4 µM | [43] 17.3 µM | [44] 37.7 µM | [45] 24.4 µM | [46] 17.6 µM | [47] 25.6 µM | [48] 25.1 µM | [49] 23.3 µM | [50] 16.4 µM | [51] 26.4 µM | [52] 19 µM | [53] 20.1 µM | [54] 59.8 µM | [55] 25.1 µM | [56] 13.8 µM | [57] 17.2 µM | [58] 37.5 µM

Cc1cc(C)c2c(c1)CC1(Cc3c(ccc(C)c3C)C1=O)C2=O (stereo not given)
inactive: [1] > 100 µM | [2] > 100 µM | [3] > 100 µM | [4] > 100 µM | [5] > 100 µM | [6] > 100 µM | [7] > 100 µM | [8] > 100 µM | [9] > 100 µM | [10] > 100 µM | [11] > 100 µM | [12] > 100 µM | [13] > 100 µM | [14] > 100 µM | [15] > 100 µM | [16] > 100 µM | [17] > 100 µM | [18] > 100 µM | [19] > 100 µM | [20] > 100 µM | [21] > 100 µM | [22] > 100 µM | [23] > 100 µM | [24] > 100 µM | [25] > 100 µM | [26] > 100 µM | [27] > 100 µM | [28] > 100 µM | [29] > 100 µM | [30] > 100 µM | [33] > 100 µM | [59] > 100 µM | [34] > 100 µM | [35] > 100 µM | [36] > 100 µM | [37] > 10 µM | [38] > 100 µM | [39] > 100 µM | [40] > 100 µM | [41] > 100 µM | [42] > 100 µM | [43] > 100 µM | [44] > 100 µM | [45] > 100 µM | [46] > 100 µM | [47] > 100 µM | [48] > 100 µM | [49] > 100 µM | [51] > 100 µM | [52] > 100 µM | [53] > 100 µM | [54] > 100 µM | [55] > 100 µM | [56] > 100 µM | [57] > 100 µM | [58] > 100 µM
> 100 µM: [32]

COC(=O)[C@]12CC[C@H]3CC[C@H]([C@H]31)[C@H](c1ccccc1)N2
inactive: [1] 17.4 µM | [2] 16 µM | [3] 26.9 µM | [4] 16.5 µM | [5] 15.6 µM | [6] 21.4 µM | [7] 23 µM | [8] 14.4 µM | [9] 18.3 µM | [10] 15.2 µM | [11] 25.4 µM | [12] 17 µM | [13] 15.2 µM | [14] 17.7 µM | [15] 17.3 µM | [16] 12.1 µM | [17] 17.4 µM | [18] 16.4 µM | [19] 22.2 µM | [20] 17.6 µM | [21] 14.2 µM | [22] 17.9 µM | [23] 23 µM | [24] 16.8 µM | [25] 18.5 µM | [26] 15.4 µM | [27] 17.7 µM | [28] 17.2 µM | [29] 18.4 µM | [30] 14.2 µM | [31] 17.3 µM | [33] 15.1 µM | [59] 15.7 µM | [34] 13.9 µM | [35] 16.3 µM | [36] 18.5 µM | [37] 16.5 µM | [38] 20.5 µM | [39] 17 µM | [40] 16.3 µM | [41] 16.3 µM | [42] 17.6 µM | [43] 14.7 µM | [44] 14.2 µM | [45] 19.6 µM | [46] 15.9 µM | [47] 15.1 µM | [48] 21.9 µM | [49] 15.7 µM | [50] 17.4 µM | [51] 17.9 µM | [52] 15.2 µM | [53] 13.5 µM | [54] 19.1 µM | [56] 15.8 µM | [57] 16.8 µM | [58] 12.9 µM
18.2 µM: [32]

COC(=O)Cc1c([C@H]2[C@H](CC(=O)OC)c3ccccc3N2C(=O)C(F)(F)F)[nH]c2ccccc12
8.18 µM: [32]
inactive: [1] 32.5 µM | [2] 26 µM | [3] 29.2 µM | [4] 29.5 µM | [5] 15.5 µM | [6] 14.6 µM | [7] 54.3 µM | [8] 13.6 µM | [9] 21.9 µM | [10] 56.6 µM | [11] 28.5 µM | [12] 13.6 µM | [13] 15.9 µM | [14] 31.3 µM | [15] 18.9 µM | [16] 14.7 µM | [17] 33.6 µM | [18] 36.5 µM | [19] 32.4 µM | [20] 90.2 µM | [21] 20 µM | [23] 22.8 µM | [24] 26.8 µM | [25] 63 µM | [26] 2 µM | [27] 41.3 µM | [28] 51.4 µM | [29] 27.6 µM | [30] 11.1 µM | [31] 26.4 µM | [33] 29.1 µM | [59] > 100 µM | [34] 21.5 µM | [35] 11.4 µM | [37] 18.2 µM | [38] 12 µM | [39] 2.83 µM | [40] 20.7 µM | [41] 18.1 µM | [42] 29.8 µM | [43] 11.6 µM | [44] 17.7 µM | [45] 27.4 µM | [46] 22.4 µM | [47] 29.3 µM | [48] 34.5 µM | [49] 46.1 µM | [50] 29 µM | [51] 32.3 µM | [52] 25 µM | [53] 32.1 µM | [54] 40.3 µM | [55] 29.9 µM | [56] 32.3 µM | [57] 25.2 µM | [58] 9.02 µM
